# According to US7759313B2, “Induction method for cell differentiation” (Obschetstvo S Ogranichennoi Otvetstvennostiyu …, priority 2002, dated 2010):
# What was measured:
# [1] = tested on: murine B-16 melanoma cells; assay: IRCP of B-16 cells, peptide derivatives at 100 μM; assay type: cell-based
# Protocol: The study was conducted on a continuous cell culture of murine B-16 melanoma growing in the form of a monolayer in a tissue culture. α-Interferon, selected as a preparation of comparison, was administered at concentration 70 IU/ml.
# The tested compounds were transferred into stock solution (1,000 μM), sterilized through filers with 0.22 μm pore diameter and then diluted down to a concentration of 100 μM.
# The effect of compounds on cells was assessed on the basis of initial rate of cell proliferation (IRCP). This index was determined by numbering the number of cells in micro colonies during the first days following affection in “test” (with preparations) and “control” (without preparations) dishes, by analyzing 50 colonies in each of them.
# Calculations of cell numbers in micro colonies were done for every “point”. Toxicity was judged by B-16 melanoma cell survival, which was determined by the ratio between numbers of the grown colonies in “test” and “control” dishes.
# Friend erythroblastosis = assay: Friend erythroblastosis, electronic microscopy of cell types; assay type: in vivo, mice
# Protocol: Friend erythroblastosis which was inoculated subcutaneously to DBA2 female mice via spleen cells was investigated.
# Group 2—Reaferon at dose 100 thousand IU/kg was administered daily s.c. from day 3 to day 7 after inoculation;
# Group 3—Dicarbamine at a single dose 4.5 mg/kg was administered p.o. from day 3 to day 7 after inoculation;
# Group 4—Dicarbamine and Reaferon were administered simultaneously according to a similar scheme.
# Material for light microscopy was taken from sacrificed animals at days 3, 7 and 14 after termination of therapy or administration of a physiological saline. Material for electronic microscopy was taken at days 7 and 14.
# For electronic microscopy, tumor pieces were fixed in a 2.5% glutaraldehyde solution and 1% osmium tetroxide and embedded in EPON-812. Semi-thin and ultra-thin slices were prepared on the LKB-III ultratome (Sweden). The obtained semi-thin slices were stained with Toluidine blue and examined through the light microscope. Ultra-thin slices were additionally stained with uranyl acetate and lead citrate; the slices examined and photographed in the JEOL 1200 EX-II electronic microscope (Japan).
# The percentage of cells with different types of differentiation (blast cells, lymphocytes and granular leukocytes) was calculated during electronic microscopy for quantitative assessment.
# inoculated B-16 melanoma = assay: Distribution of tumor cells by cell cycle phases (DNA content); assay type: in vivo, mice; conditions: 0.5 mg/kg intragastrically daily for 10 days
# Protocol: Tests were done on inoculated B-16 melanoma. The effect of Dicarbamine on the distribution of tumor cells was studied on the basis of DNA content at different times following administration of the preparation. From day 6 after the tumor inoculation mice for 10 days were daily intragastrically given with 0.5 mg/kg Dicarbamine. Animals were sacrificed with subsequent investigation of tumor material at days 10, 12, 16 and 18 after inoculation, i.e. days 5 and 7 respectively after Dicarbamine administration as well as in 2 and 4 days after termination of Dicarbamine 10-day dosing.
# M-6 melanoma = assay: Morphologic parameters of M-6 melanoma in nude mice (light microscopy); assay type: in vivo, mouse (mouse (mouse (mouse (mouse (mouse (mouse (mouse (mouse (mouse (mouse (mouse (human melanoma xenograft) melanoma xenograft) melanoma xenograft) melanoma xenograft) melanoma xenograft) melanoma xenograft) melanoma xenograft) melanoma xenograft) melanoma xenograft) melanoma xenograft) melanoma xenograft) melanoma xenograft)
# Protocol: The study was conducted on 10-12 week old thymus free (nude) female Balb/C mice weighing 20-22 grams (breeding of the Russian Cancer Research Center (RCRC) named after N. N. Blokhin of the Russian Academy of Medical Sciences (RAMS)). A human melanoma strain earlier obtained from primary clinical material was taken from the bank of tumor strains of the RCRC of the RAMS for transplantation to thymus free “nude” mice. Tumor was disintegrated by Versen solution with vital Trypan blue staining and inoculated subcutaneously to mice in the amount of 1.6 million cells per mouse.
# Dicarbamine was administered to mice intragastrically using a metal probe daily at dose 1.0 mg/kg beginning 4 days before the tumor inoculation and thereafter for 10-11 days (administration course up to 15 days). The mice were sacrificed with ether anesthesia in 12, 24 and 48 hours after the last administration.
# Four morphologic parameters, such as the number of cells with pigment and the number of cells with apoptosis signs (capability to differentiate), the number of mitoses (proliferation activity), and necrosis area, were determined to monitor the degree of differentiation and proliferation of M-6 melanoma cells in the groups of control animals and in the Dicarbamine groups. These parameters were determined dynamically and correlated with general morphologic picture of a tumor growth as an integral sign. For this purpose, the tumors were removed from the mice, placed into formalin, and histologically processed for light microscopy.
# [2] = 1.0 mg/kg daily, 12 hours since withdrawal
# [3] = 1.0 mg/kg daily, 24 hours since withdrawal
# [4] = 1.0 mg/kg daily, 48 hours since withdrawal
structure (smiles),measurement,setting,value
O=C(O)CCCC(=O)NCCc1c[nH]cn1 [Dicarbamine],Initial rate of cell proliferation (% cells/colony relative to the control),[1]; 48 hours,30.8 ± 2.8%
same,Initial rate of cell proliferation (% cells/colony relative to the control),[1]; 72 hours,28.2 ± 2.2%
same,decrease of the quantity of immature tumor cells vs control,Friend erythroblastosis; Dicarbamine 4.5 mg/kg,15-20%
same,increase of the quantity of lymphocytes vs control,Friend erythroblastosis; Dicarbamine 4.5 mg/kg,4 fold
same,number of lymphocytes,Friend erythroblastosis; Dicarbamine + Reaferon,18-25%
same,quantity of large blast type cells,Friend erythroblastosis; Dicarbamine + Reaferon,70-80%
same,quantity of leukocytes (granular),Friend erythroblastosis; Dicarbamine + Reaferon,2-5%
same,quantity of granulocytes (granular leukocytes),Friend erythroblastosis; single agent,2-5%
same,quantity of lymphocytes (lymphoid cells),Friend erythroblastosis; single agent,18-25%
same,quantity of large blast type cells,"Friend erythroblastosis; single agent (Dicarbamine 4.5 mg/kg p.o. or Reaferon 100 thousand IU/kg s.c., days 3-7)",70-80%
same,increase in the portion of IIG^2 cells,inoculated B-16 melanoma,12-14%
same,increase of the portion of interphase tumor cells (IIG^1),inoculated B-16 melanoma,≈ 25%
same,portion of proliferating cells (constant),inoculated B-16 melanoma,≈ 30%
same,Apoptosis,M-6 melanoma; [2],0.1–0.2%
same,Cells with pigment,M-6 melanoma; [2],2–3%
same,Mitoses,M-6 melanoma; [2],3–5%
same,Apoptosis,M-6 melanoma; [3],0.2–0.3%
same,Cells with pigment,M-6 melanoma; [3],2–4%
same,Mitoses,M-6 melanoma; [3],3–5%
same,Necrosis area,M-6 melanoma; [3],7–9%
same,Apoptosis,M-6 melanoma; [4],0.2–0.3%
same,Cells with pigment,M-6 melanoma; [4],3–5%
same,Mitoses,M-6 melanoma; [4],3–5%
same,Necrosis area,M-6 melanoma; [4],8–10%
same,Necrosis area,"M-6 melanoma; 1.0 mg/kg intragastrically daily up to 15 days, 12 hours since withdrawal",6–7%
